Assay results from patent publication US20070207952A1, “Long Acting Biologically Active Conjugates” (priority 2003, published 2007).
Where a SMILES comes first, the peptide text is derived from it. [ ]: non-standard residue; d: D form. Nle = CCCC[C@H](N)C(=O)O

Tested on: HIV NL4-3
Experiment: Antiviral cytotoxicity (MTT) assay with MT4 cells, HIV NL4-3
Type: cell-based, HIV-1
Conditions: MT-4 cells, 5 days, average of 2 or 3 experiments
Experimental: Antiviral potency of the peptides was analyzed against HIV-1 HXB2 or NLA-3 strains using a cytotoxicity assay with MT4 cells as previously described (ref 1-3) with minor modifications. MT-4 cells (1.5×10^4/ml) were exposed to 200 50% tissue culture infective doses (TCID50) of viruses in the presence of various concentrations of test compound in 96 well microtiter plates and incubated at 37° C. for 5 days. Cytotoxicity of HIV was measured by the addition of 3-(4,5-dimethylthiazol-2-yl)-2,5-diphenytetrazolium bromide (MMI) solution to each well to a final concentration of 0.75 mg/ml, and incubation for 1 hour a 37° C. After incubation, cells were dissolved in isopropanoyrriton-X 100/HCl (1000:50:25) solution. Absorbance was monitored in a microplate reader (Spectramax, Molecular Devices) at 540 rm and 690 nm. MT-4 cells were obtained from the AIDS Research and Reference Reagent Program (ARRRP, Division of AIDS, NIAID, NIH: MT-4 from Dr. D. Richman). Cells were propagated in RPMI 1640 growth medium supplemented with 10% fetal bovine serum, 50U of penicillin and 50 μg of streptomycin per ml ([Ivitrogen, Carlsbad Calif.).

| Compound | IC50 |
| --- | --- |
| CCCC[C@H](NC(=O)[C@H](Cc1c[nH]c2ccccc12)NC(C)=O)C(=O)N[C@@H](CCC(=O)O)C(=O)N[C@@H](Cc1c[nH]c2ccccc12)C(=O)N[C@@H](CC(=O)O)C(=O)N[C@@H](CCCNC(=N)N)C(=O)N[C@@H](CCC(=O)O)C(=O)N[C@H](C(=O)N[C@@H](CC(N)=O)C(=O)N[C@@H](CC(N)=O)C(=O)N[C@@H](Cc1ccc(O)cc1)C(=O)N[C@H](C(=O)N[C@@H](CO)C(=O)N[C@@H](CC(C)C)C(=O)N[C@H](C(=O)N[C@@H](Cc1c[nH]cn1)C(=O)N[C@@H](CO)C(=O)N[C@@H](CCC(N)=O)C(=O)N[C@H](C(=O)N[C@@H](CCC(=O)O)C(=O)N[C@@H](CCC(=O)O)C(=O)N[C@@H](CO)C(=O)N[C@@H](CCC(N)=O)C(=O)N[C@@H](CC(N)=O)C(=O)N[C@@H](CCC(N)=O)C(=O)N[C@@H](CCC(N)=O)C(=O)N[C@@H](CCC(=O)O)C(=O)N[C@@H](CCCCN)C(=O)N[C@@H](CC(N)=O)C(=O)N[C@@H](CCC(=O)O)C(=O)N[C@@H](CCC(N)=O)C(=O)N[C@@H](CCC(=O)O)C(=O)N[C@@H](CC(C)C)C(=O)N[C@@H](CC(C)C)C(N)=O)[C@@H](C)CC)[C@@H](C)CC)[C@@H](C)O)[C@@H](C)CC [peptide 5, Ac-WXEWDREINNYTSLIHSQIEESQNQQEKNEQELL-NH2] (Ac-W[Nle]EWDREINNYTSLIHSQIEESQNQQEKNEQELL-NH2) | 200 nM |
| CCCC[C@H](NC(=O)[C@H](Cc1c[nH]c2ccccc12)NC(C)=O)C(=O)N[C@@H](CCC(=O)O)C(=O)N[C@@H](Cc1c[nH]c2ccccc12)C(=O)N[C@@H](CC(=O)O)C(=O)N[C@@H](CCCNC(=N)N)C(=O)N[C@@H](CCCCN)C(=O)N[C@H](C(=O)N[C@@H](CCC(=O)O)C(=O)N[C@@H](CCC(=O)O)C(=O)N[C@@H](Cc1ccc(O)cc1)C(=O)N[C@H](C(=O)N[C@@H](CCCCN)C(=O)N[C@@H](CCCCN)C(=O)N[C@H](C(=O)N[C@@H](CCCCN)C(=O)N[C@@H](CCCCN)C(=O)N[C@@H](CC(C)C)C(=O)N[C@H](C(=O)N[C@@H](CCC(=O)O)C(=O)N[C@@H](CCC(=O)O)C(=O)N[C@@H](CO)C(=O)N[C@@H](CCC(N)=O)C(=O)N[C@@H](CCC(=O)O)C(=O)N[C@@H](CCC(N)=O)C(=O)N[C@@H](CCC(N)=O)C(=O)N[C@@H](CCC(=O)O)C(=O)N[C@@H](CCCCN)C(=O)N[C@@H](CC(N)=O)C(=O)N[C@@H](CCC(=O)O)C(=O)N[C@@H](CCCCN)C(=O)N[C@@H](CCC(=O)O)C(=O)N[C@@H](CC(C)C)C(=O)N[C@@H](CCCCN)C(N)=O)[C@@H](C)CC)[C@@H](C)CC)[C@@H](C)O)[C@@H](C)CC [peptide 6, Ac-WXEWDRKIEEYTKKIKKLIEESQEQQEKNEKELK-NH2] (Ac-W[Nle]EWDRKIEEYTKKIKKLIEESQEQQEKNEKELK-NH2) | 1.2 nM |

Biological target: T1, Human plasma renin (Homo sapiens, UniProt P00797)
T1 construct: plasma renin
T1 sequence (P00797 67-406): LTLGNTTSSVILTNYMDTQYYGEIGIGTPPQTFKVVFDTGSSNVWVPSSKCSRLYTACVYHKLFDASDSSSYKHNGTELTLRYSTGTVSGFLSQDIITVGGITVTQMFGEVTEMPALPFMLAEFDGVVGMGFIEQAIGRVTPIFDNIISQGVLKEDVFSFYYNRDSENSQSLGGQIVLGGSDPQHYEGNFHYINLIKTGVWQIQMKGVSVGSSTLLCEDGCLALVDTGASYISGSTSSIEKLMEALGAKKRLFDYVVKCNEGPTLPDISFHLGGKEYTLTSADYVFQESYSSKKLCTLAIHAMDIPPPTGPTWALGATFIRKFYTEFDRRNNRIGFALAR
Experiment: not given
Conditions: cell marked (Ki); cited from earlier work

| Compound | Ki |
| --- | --- |
| Iva-His-Pro-Phe-His-Sta---Ala-Sta | 1.9 nM |

Tested on: HIV-1 IIIB
Experiment: Antiviral cytotoxicity (MTT) assay with MT4 cells, HIV-1 IIIB
Type: cell-based
Conditions: MT-4 cells, 5 days, average of 2 or 3 experiments

| Compound | IC50 |
| --- | --- |
| CCCC[C@H](NC(=O)[C@H](Cc1c[nH]c2ccccc12)NC(C)=O)C(=O)N[C@@H](CCC(=O)O)C(=O)N[C@@H](Cc1c[nH]c2ccccc12)C(=O)N[C@@H](CC(=O)O)C(=O)N[C@@H](CCCNC(=N)N)C(=O)N[C@@H](CCC(=O)O)C(=O)N[C@H](C(=O)N[C@@H](CC(N)=O)C(=O)N[C@@H](CC(N)=O)C(=O)N[C@@H](Cc1ccc(O)cc1)C(=O)N[C@H](C(=O)N[C@@H](CO)C(=O)N[C@@H](CC(C)C)C(=O)N[C@H](C(=O)N[C@@H](Cc1c[nH]cn1)C(=O)N[C@@H](CO)C(=O)N[C@@H](CCC(N)=O)C(=O)N[C@H](C(=O)N[C@@H](CCC(=O)O)C(=O)N[C@@H](CCC(=O)O)C(=O)N[C@@H](CO)C(=O)N[C@@H](CCC(N)=O)C(=O)N[C@@H](CC(N)=O)C(=O)N[C@@H](CCC(N)=O)C(=O)N[C@@H](CCC(N)=O)C(=O)N[C@@H](CCC(=O)O)C(=O)N[C@@H](CCCCN)C(=O)N[C@@H](CC(N)=O)C(=O)N[C@@H](CCC(=O)O)C(=O)N[C@@H](CCC(N)=O)C(=O)N[C@@H](CCC(=O)O)C(=O)N[C@@H](CC(C)C)C(=O)N[C@@H](CC(C)C)C(N)=O)[C@@H](C)CC)[C@@H](C)CC)[C@@H](C)O)[C@@H](C)CC [peptide 5, Ac-WXEWDREINNYTSLIHSQIEESQNQQEKNEQELL-NH2] (Ac-W[Nle]EWDREINNYTSLIHSQIEESQNQQEKNEQELL-NH2) | 6.6 nM |
| CCCC[C@H](NC(=O)[C@H](Cc1c[nH]c2ccccc12)NC(C)=O)C(=O)N[C@@H](CCC(=O)O)C(=O)N[C@@H](Cc1c[nH]c2ccccc12)C(=O)N[C@@H](CC(=O)O)C(=O)N[C@@H](CCCNC(=N)N)C(=O)N[C@@H](CCCCN)C(=O)N[C@H](C(=O)N[C@@H](CCC(=O)O)C(=O)N[C@@H](CCC(=O)O)C(=O)N[C@@H](Cc1ccc(O)cc1)C(=O)N[C@H](C(=O)N[C@@H](CCCCN)C(=O)N[C@@H](CCCCN)C(=O)N[C@H](C(=O)N[C@@H](CCCCN)C(=O)N[C@@H](CCCCN)C(=O)N[C@@H](CC(C)C)C(=O)N[C@H](C(=O)N[C@@H](CCC(=O)O)C(=O)N[C@@H](CCC(=O)O)C(=O)N[C@@H](CO)C(=O)N[C@@H](CCC(N)=O)C(=O)N[C@@H](CCC(=O)O)C(=O)N[C@@H](CCC(N)=O)C(=O)N[C@@H](CCC(N)=O)C(=O)N[C@@H](CCC(=O)O)C(=O)N[C@@H](CCCCN)C(=O)N[C@@H](CC(N)=O)C(=O)N[C@@H](CCC(=O)O)C(=O)N[C@@H](CCCCN)C(=O)N[C@@H](CCC(=O)O)C(=O)N[C@@H](CC(C)C)C(=O)N[C@@H](CCCCN)C(N)=O)[C@@H](C)CC)[C@@H](C)CC)[C@@H](C)O)[C@@H](C)CC [peptide 6, Ac-WXEWDRKIEEYTKKIKKLIEESQEQQEKNEKELK-NH2] (Ac-W[Nle]EWDRKIEEYTKKIKKLIEESQEQQEKNEKELK-NH2) | 2.4 nM |
